Earlier results on two molecules are cited in patent US20080249137A1, “PPAR active compounds” (priority 2005, published 2008).

Structures are written as SMILES.

The conditions of series [1]: patients, large prospective trial.
The target in another series is T1, PPARδ (Homo sapiens, UniProt Q03181).
T1 sequence (Q03181 1-441): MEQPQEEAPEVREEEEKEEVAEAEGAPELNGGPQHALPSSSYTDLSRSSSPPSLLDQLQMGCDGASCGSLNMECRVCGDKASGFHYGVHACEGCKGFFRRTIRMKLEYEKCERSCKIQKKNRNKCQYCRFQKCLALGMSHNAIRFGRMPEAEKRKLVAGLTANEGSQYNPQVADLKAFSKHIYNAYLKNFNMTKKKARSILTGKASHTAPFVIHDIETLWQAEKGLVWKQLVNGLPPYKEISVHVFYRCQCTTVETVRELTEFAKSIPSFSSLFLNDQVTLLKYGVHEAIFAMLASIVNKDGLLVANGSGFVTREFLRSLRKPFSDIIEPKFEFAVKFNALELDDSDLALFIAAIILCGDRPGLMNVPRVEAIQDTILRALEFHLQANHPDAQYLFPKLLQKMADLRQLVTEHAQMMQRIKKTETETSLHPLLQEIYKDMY

The target of the next series is T2, murine PPARα (Mus musculus, UniProt P23204).
T2 sequence (P23204 1-468): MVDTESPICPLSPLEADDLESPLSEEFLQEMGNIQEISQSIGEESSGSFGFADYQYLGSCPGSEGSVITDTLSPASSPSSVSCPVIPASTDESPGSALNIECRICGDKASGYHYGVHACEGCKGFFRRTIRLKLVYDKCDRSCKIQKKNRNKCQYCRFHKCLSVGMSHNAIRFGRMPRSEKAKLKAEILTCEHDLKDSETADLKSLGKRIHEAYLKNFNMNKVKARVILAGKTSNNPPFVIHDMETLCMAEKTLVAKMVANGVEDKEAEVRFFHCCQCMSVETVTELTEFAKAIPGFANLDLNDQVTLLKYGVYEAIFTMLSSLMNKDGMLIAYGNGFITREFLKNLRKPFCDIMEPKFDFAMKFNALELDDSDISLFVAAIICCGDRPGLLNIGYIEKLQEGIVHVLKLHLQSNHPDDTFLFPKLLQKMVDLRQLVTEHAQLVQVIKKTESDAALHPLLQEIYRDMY

As to `Cc1ccc(C)c(OCCCC(C)(C)C(=O)O)c1` [gemfibrozil], in series [1], the “reduction in cardiovascular events or death” value is given as 22%.
`CCCc1c(OCCCOc2ccc(OCC(=O)O)cc2)ccc(C(C)=O)c1O` [Compound L-165041]: the “agonist selectivity for PPARδ over PPARγ” value on PPARδ is recorded as “approximately 30 fold”. On murine PPARα, the “activity on murine PPARα” value was “inactive”.
